Experimental findings from patent US20220331445A1, “HIGH DENSITY LIPOPROTEIN-LIKE NANOPARTICLES AS INDUCERS OF FERROPTOSIS IN CANCER” (Northwestern University, priority 2019, published 2022) are described below.

Test [1] deals with OVCAR5 CP Resistant Cell Line. As to the kind of experiment: MTS cell death / rescue assay in OVCAR5 CP Resistant cells. It counts as cell-based. The conditions noted are these: OVCAR5 CP Resistant cells with HDL NPs.
The test system of test [2] is 769-P, a clear cell renal carcinoma cell line. As to the kind of experiment: MTS cell death / rescue assay in 769-P cells. The class given is cell-based. The conditions noted are these: 769-P cells with HDL NPs.
The subject of the next test is SUDHL4 cells. Description: Cell death (MTS) assay in SUDHL4 cells. It counts as cell-based, human. The conditions noted are these: SUDHL4 cells cultured with HDL NPs; inhibitor added at 1 μM. As for the experimental part: (§1) MTS assays (CellTiter; Promega) were conducted as described previously. For the Ramos, SUDHL4, Raji, Daudi, Namalwa, SUDHL6 and Jurkat cells were plated at a density of 2×10^5 cells/mL, and cultured for 72 hours prior to assay. SUDHL1, SR-786, and U937 cells were plated at a density of 5×10^4 cells/mL and cultured for 5 days prior to MTS assay. The SCARB1 blocking and isotype control antibodies were added at a dilution of 1:1000 to 1:250. Ferrostatin-1 and deferoxamine (DFO) were obtained from Sigma Aldrich, and added at a final concentration of 1 μM. MTS values were standardized to PBS control.

Test [3] relates to 786-O (renal cell carcinoma-clear cell) cells. As to the kind of experiment: MTS cell death / rescue assay in 786-O cells. The class given is cell-based. The conditions noted are these: 786-O cells with HDL NPs.
For the next test, the system named is OVCAR5 cell line. As to the kind of experiment: MTS cell death / rescue assay in OVCAR5 cells. The class given is cell-based. The conditions noted are these: OVCAR5 cells with HDL NPs.
The test system of a further test is Ramos cells. Description: Cell death (MTS) assay in Ramos cells. It counts as cell-based, human. The conditions noted are these: Ramos cells cultured with HDL NPs; inhibitor added at 1 μM. As for the experimental part: as §1

The structures appear in SMILES notation.

Turning to `CCOC(=O)c1ccc(NC2CCCCC2)c(N)c1` [ferrostatin-1], the “effect on cell death induced by HDL NPs (MTS)” value (in test [1]; in test [2]; in the test with OVCAR5 cell line) was “rescued” throughout. The “effect on HDL NP induced cell death” value with SUDHL4 cells and with Ramos cells was “significantly inhibited” each time. For the same molecule, the results for the “effect on cell death induced by HDL NPs (MTS Rescue Assay)” value in test [3] and in test [3] (listed as Ferrostatin-1) were “rescued” and “dramatic effects”, respectively.
